Measurements as given in patent publication US20050288347A1, “Certain triazole-based compounds, compositions, and uses thereof” (priority 2004, published 2005).
Entries after “also recorded” stand apart in the source; their conditions may differ.

Molecular target: protein kinase
Assay: HTS ATP-utilizing enzyme assay, off-chip mobility-shift format (Caliper HTS 250)
Format: biochemical, human
Conditions: kinase(s) for which the compound exhibits protein kinase inhibitory activity; test compound 10 μM; active = greater than three-sigma from the mean activity of inactive compounds
Summary of the method: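 Kinase reactions ran 2.5 h at 20 to 22 °C with test compound at 10 μM, in a HEPES pH 7.5 master buffer containing Triton X-100 and BSA. Peptide substrate and phosphorylated product separated by mobility shift; inhibition normalized to DMSO (0%) and EDTA (100%) controls, with three-sigma thresholds for hits.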

Structure (SMILES) | Kinase
Cn1c(SCC(=O)N2CCOCC2)nnc1-c1ccco1 [2-(5-(furan-2-yl)-4-methyl-4H-1,2,4-triazol-3-ylthio)-1-morpholinoethanone] | FYN
O=C(CSc1nnc(-c2ccco2)n1-c1ccccc1)NCCc1ccccc1 [2-(5-(furan-2-yl)-4-phenyl-4H-1,2,4-triazol-3-ylthio)-N-phenethylacetamide] | AKT1
Cc1ccc(-n2c(SCC#N)nnc2-c2ccncc2)cc1 [2-(5-(pyridin-4-yl)-4-p-tolyl-4H-1,2,4-triazol-3-ylthio)acetonitrile] | AURORA-A; also recorded: GSK3-β; also recorded: GSK3-α
O=C(O)CSc1nnc(-c2cccs2)[nH]1 [2-(5-(thiophen-2-yl)-4H-1,2,4-triazol-3-ylthio)acetic acid] | DYRK2; also recorded: GSK3-β; also recorded: GSK3-α
N#CCSc1nnc(-c2cccs2)[nH]1 [2-(5-(thiophen-2-yl)-4H-1,2,4-triazol-3-ylthio)acetonitrile] | DYRK2; also recorded: FLT-3; also recorded: AURORA-A
Cc1cccc(-c2nnc(SCC(=O)O)[nH]2)c1 [2-(5-m-tolyl-4H-1,2,4-triazol-3-ylthio)acetic acid] | GSK3-β; also recorded: DYRK2; also recorded: AURORA-A
Cc1nnc(SCC(=O)c2ccccc2)[nH]1 [2-(5-methyl-4H-1,2,4-triazol-3-ylthio)-1-phenylethanone] | GSK3-α; also recorded: GSK3-β; also recorded: DYRK2
N#CCSc1nnc(-c2ccccc2)[nH]1 [2-(5-phenyl-4H-1,2,4-triazol-3-ylthio)acetonitrile] | DYRK2; also recorded: FLT-3; also recorded: AURORA-A

More lines, now with the values ahead:

Kinase | Structure (SMILES)
CHEK2 | N#CCSc1nnc(-c2ccco2)n1-c1ccccc1 [2-(5-(furan-2-yl)-4-phenyl-4H-1,2,4-triazol-3-ylthio)acetonitrile]
FYN | CC(Sc1nnc(COc2ccccc2)n1-c1ccccc1)C(=O)O (centres unmarked) [2-(5-(phenoxymethyl)-4-phenyl-4H-1,2,4-triazol-3-ylthio)propanoic acid]
AURORA-A | Cc1ccc(-n2c(SCC(=O)O)nnc2-c2cccnc2)cc1 [2-(5-(pyridin-3-yl)-4-p-tolyl-4H-1,2,4-triazol-3-ylthio)acetic acid]
AURORA-A | Cc1ccc(-n2c(SC(C)C(=O)O)nnc2-c2cccnc2)cc1 (centres unmarked) [2-(5-(pyridin-3-yl)-4-p-tolyl-4H-1,2,4-triazol-3-ylthio)propanoic acid]
HCK | Cn1c(Cc2ccccc2)nnc1SCC(N)=O [2-(5-benzyl-4-methyl-4H-1,2,4-triazol-3-ylthio)acetamide]
AURORA-A | Cn1c(Cc2ccccc2)nnc1SCC#N [2-(5-benzyl-4-methyl-4H-1,2,4-triazol-3-ylthio)acetonitrile]
GSK3-β | COc1ccccc1-n1c(SCC(=O)O)nnc1C1CCCCC1 [2-(5-cyclohexyl-4-(2-methoxyphenyl)-4H-1,2,4-triazol-3-ylthio)acetic acid]
SRC | CCn1c(SCC(=O)c2ccccc2)nnc1C1CCCCC1 [2-(5-cyclohexyl-4-ethyl-4H-1,2,4-triazol-3-ylthio)-1-phenylethanone]
AURORA-A and MSK1 | CCn1c(SCC#N)nnc1C1CCCCC1 [2-(5-cyclohexyl-4-ethyl-4H-1,2,4-triazol-3-ylthio)acetonitrile]
CHEK2 | N#CCSc1nnc(C2CCCCC2)n1-c1ccccc1 [2-(5-cyclohexyl-4-phenyl-4H-1,2,4-triazol-3-ylthio)acetonitrile]
GSK3-α | N#CCSc1nnc(C2CCCCC2)[nH]1 [2-(5-cyclohexyl-4H-1,2,4-triazol-3-ylthio)acetonitrile]
AURORA-A | Cc1ccc(-n2c(S)nnc2-c2ccccc2O)cc1 [2-(5-mercapto-4-p-tolyl-4H-1,2,4-triazol-3-yl)phenol]
CDK2-cyclinE; also recorded: DAPK1 | Oc1ccccc1-c1nnc(S)n1CCc1ccccc1 [2-(5-mercapto-4-phenethyl-4H-1,2,4-triazol-3-yl)phenol]
DYRK2 | Cc1nnc(SCC(N)=O)n1-c1ccccc1 [2-(5-methyl-4-phenyl-4H-1,2,4-triazol-3-ylthio)acetamide]
MAPKAPK-2 and CDK2-cyclinE and LCK | Cc1nnc(SCC(=O)N2c3ccccc3Sc3ccccc32)[nH]1 [2-(5-methyl-4H-1,2,4-triazol-3-ylthio)-1-(10H-phenothiazin-10-yl)ethanone]
GSK3-β; also recorded: GSK3-α | Cc1nnc(SCC(=O)O)[nH]1 [2-(5-methyl-4H-1,2,4-triazol-3-ylthio)acetic acid]
DYRK2; also recorded: GSK3-α | CC(C)(C)c1nnc(SCC#N)[nH]1 [2-(5-tert-butyl-4H-1,2,4-triazol-3-ylthio)acetonitrile]
AURORA-A | O=C(CSc1nncn1-c1cccnc1)Nc1cccc(C(=O)O)c1 [3-(2-(4-(pyridin-3-yl)-4H-1,2,4-triazol-3-ylthio)acetamido)benzoic acid]

Same assay, conditions: test compound 10 μM; active = activity greater than three-sigma from the mean of the predominately inactive population for that enzyme

Structure (SMILES) | protein kinase against which the compound exhibits inhibitory activity (Table 3)
Cc1ccc(-n2c(SCCO)nnc2-c2ccncc2)cc1 [2-(5-(pyridin-4-yl)-4-p-tolyl-4H-1,2,4-triazol-3-ylthio)ethanol] | GSK3-β; also recorded: GSK3-α
OCCSc1nnc(-c2cccs2)[nH]1 [2-(5-(thiophen-2-yl)-4H-1,2,4-triazol-3-ylthio)ethanol] | DYRK2; also recorded: FLT-3; also recorded: AURORA-A
O=S(=O)(CCSc1nnc(Cc2ccccc2)n1-c1ccccc1)Nc1ccccc1 [2-(5-benzyl-4-phenyl-4H-1,2,4-triazol-3-ylthio)-N-phenylethanesulfonamide] | AKT2
Cc1cccc(-c2nnc(SCC(N)=O)[nH]2)c1 [2-(5-m-tolyl-4H-1,2,4-triazol-3-ylthio)acetamide] | CHEK2; also recorded: AURORA-A; also recorded: FLT-3
OCCSc1nnc(-c2ccccc2)[nH]1 [2-(5-phenyl-4H-1,2,4-triazol-3-ylthio)ethanol] | FLT-3; also recorded: AURORA-A; also recorded: DYRK2
COc1ccc(-c2nnc(SCc3ccccc3C#N)[nH]2)cc1 [2-((5-(4-methoxyphenyl)-4H-1,2,4-triazol-3-ylthio)methyl)benzonitrile] | AURORA-A; also recorded: CHEK2; also recorded: GSK3-α
N#Cc1ccccc1CSc1nnc(-c2cccnc2)[nH]1 [2-((5-(pyridin-3-yl)-4H-1,2,4-triazol-3-ylthio)methyl)benzonitrile] | AURORA-A; also recorded: GSK3-α; also recorded: CHEK2
N#Cc1ccccc1CSc1nnc(-c2cccs2)[nH]1 [2-((5-(thiophen-2-yl)-4H-1,2,4-triazol-3-ylthio)methyl)benzonitrile] | AURORA-A; also recorded: CHEK2; also recorded: GSK3-α
c1ccc2[nH]c(CSc3nnc(C4CCCC4)[nH]3)nc2c1 [2-((5-cyclopentyl-4H-1,2,4-triazol-3-ylthio)methyl)-1H-benzo[d]imidazole] | GSK3-α; also recorded: AURORA-A; also recorded: DYRK2
Cc1nnc(SCc2nc3ccccc3[nH]2)[nH]1 [2-((5-methyl-4H-1,2,4-triazol-3-ylthio)methyl)-1H-benzo[d]imidazole] | DYRK2; also recorded: FLT-3; also recorded: AURORA-A
Cc1nnc(SCc2ccccc2C#N)[nH]1 [2-((5-methyl-4H-1,2,4-triazol-3-ylthio)methyl)benzonitrile] | AURORA-A; also recorded: GSK3-β; also recorded: GSK3-α
N#Cc1ccccc1CSc1nnc(-c2ccccc2)[nH]1 [2-((5-phenyl-4H-1,2,4-triazol-3-ylthio)methyl)benzonitrile] | AURORA-A; also recorded: CHEK2; also recorded: GSK3-β
c1csc(-c2nnc(SCCN3CCCC3)[nH]2)c1 [3-(2-(pyrrolidin-1-yl)ethylthio)-5-(thiophen-2-yl)-4H-1,2,4-triazole] | GSK3-α; also recorded: GSK3-β; also recorded: DYRK2
CCOCCSc1nnc(-c2ccc(OC(F)(F)F)cc2)[nH]1 [3-(2-ethoxyethylthio)-5-(4-(trifluoromethoxy)phenyl)-4H-1,2,4-triazole] | AURORA-A; also recorded: GSK3-β
CCOCCSc1nnc(-c2cccs2)[nH]1 [3-(2-ethoxyethylthio)-5-(thiophen-2-yl)-4H-1,2,4-triazole] | AURORA-A; also recorded: DYRK2; also recorded: GSK3-β
CCOCCSc1nnc(-c2ccccc2)[nH]1 [3-(2-ethoxyethylthio)-5-phenyl-4H-1,2,4-triazole] | 3-(2-ethoxyethylthio)-5-phenyl-4H-1,2,4-triazole AURORA-A and FLT-3 and DYRK2
COCCSc1nnc(-c2ccc(OC)cc2)n1-c1ccccc1 [3-(2-methoxyethylthio)-5-(4-methoxyphenyl)-4-phenyl-4H-1,2,4-triazole] | SYK and INSR and PRAK
CCOCCSc1nnc(-c2ccc(Cl)c(Cl)c2)[nH]1 [3-(3,4-dichlorophenyl)-5-(2-ethoxyethylthio)-4H-1,2,4-triazole] | AURORA-A; also recorded: GSK3-β; also recorded: GSK3-α
CS(=O)(=O)c1ccc(CSc2nnc(-c3ccc(Cl)c(Cl)c3)[nH]2)cc1 [3-(3,4-dichlorophenyl)-5-(4-(methylsulfonyl)benzylthio)-4H-1,2,4-triazole] | AURORA-A; also recorded: FLT-3
Clc1ccccc1CSc1nncn1-c1cccnc1 [3-(3-(2-chlorobenzylthio)-4H-1,2,4-triazol-4-yl)pyridine] | PDGFRR-α
FC(F)(F)c1cccc(-c2nnc(SCc3cccc(I)c3)[nH]2)c1 [3-(3-iodobenzylthio)-5-(3-(trifluoromethyl)phenyl)-4H-1,2,4-triazole] | CHEK2
